Assays:
[1] = test system: SK-N-AS and monocytes; test: Tumorsphere cluster formation in low attachment plates; format: cell-based, human; details: 10 μg/mL etanercept, 24 hours, ultra low attachment plates
[2] = test system: NB tumor cell gene expression; test: Eukaryotic mRNA-seq of xenograft tumors; format: in vivo; details: mouse transcripts, vs control tumors
Description: (FIG. 17A) Tumors recovered from mice in FIG. 16 were snap frozen in OTC media, thin sectioned, and stained for murine CD31 expression (red) and DAPI counterstain (blue). Results shown are representative images from five fields of view (FOVs) per tumor, with five tumors per group. Scale bar 50 μm. (FIG. 17B) Total number of CD31+ regions per FOV with box and whisker plot showing quartiles±range (Ctrl n=15, Etan n=25). (FIG. 17C) Size of each CD31+ area quantified per FOV; shown is median CD31+ area per FOV with box and whisker plot showing quartiles±range (Ctrl n=15, Etan n=25) (FIG. 17D) Longest distance across each CD31+ area (Max Feret distance) per FOV; shown is median distance per FOV with box and whisker plot showing quartiles±range (Ctrl n=15, Etan n=25). […]
Total RNA from cell pellets was isolated using the RNeasy Micro Plus Kit (Qiagen). […] Relative changes in gene expression were calculated based on the ΔCt method using housekeeping gene GAPDH as control. […]
Eukaryotic mRNA sequencing with 30M depth and 150 paired end reads was performed by Novogene, Inc. Quality control checks on FASTQ sequencing files were performed by FastQC (v0.11.2, https://www.bioinformatics.babraham.ac.uk/projects/fastqc/). Reads were then aligned to human (GRCh38, Ensembl release version 84) or mouse (GRCm38, Ensembl release version 81) reference genomes separately by hisat2 v2.1.0(51). […]

[3] = test system: SK-N-AS-luc/monocyte xenografts; test: SK-N-AS-luc/monocyte subcutaneous xenograft in NSG mice; format: in vivo, mouse
Experimental: Luciferase-labeled NB and freshly isolated human monocytes were embedded in Matrigel and injected into the subcutaneous right flank of 8-week female NSG mice. […] (FIG. 9A) Tumor growth was tracked indirectly through luminescence imaging using IVIS Imaging system. (FIG. 9B) Average tumor luminescence of each group over time. After 3 weeks, mice were sacrificed and the tumor size was analyzed directly by weight. The bottom line is NB+Mono+FcTNFR and the top line is NB+Mono+IgG. (FIG. 9C) Representative image of 5 tumors from each group. (FIG. 9D) Tumor weight by group after Log10 transformation of weight (in mg). * p<0.05, ** p<0.01;
(FIG. 27A) SK-N-AS-luc and freshly isolated human monocytes were embedded in matrigel and injected into the subcutaneous right flank of eight-week female NSG mice. […] Representative luminescence images (Ctrl n=7, Etan n=13) measured in radiance (photons/second/cm2/steradian). (FIG. 27B) Graphical representation of total luminescence per tumor from (A) over time. (FIG. 27C) Mean tumor total luminescence over time, two-way ANOVA with Bonferroni multiple comparisons test (Ctrl n=7, Etan n=13); NB/Mon+Ctrl line is on top. (FIG. 27D) Representative tumors for each group following sacrifice at day 21. * p<0.05; […]

etanercept was tested, and the “association of NB/monocytes into tumorsphere clusters” value [1] was “blocking the ability of NB/monocytes to associate into tumorsphere clusters”, the “infiltration of erythrocytes, platelets, and neutrophils (mouse stroma gene expression)” value [2] was “reduced infiltration of erythrocytes, platelets, and neutrophils” and the “reduction of tumor growth (luminescence)” value ([3]; 5 mg/kg (100 μg) i.p. bi-weekly, vs IgG control) was 30%. The growth of tumors ([3]; SK-N-AS + monocytes in Matrigel, 100 μg bi-weekly, vs IgG control (FIG. 9)) was “significantly decreased the growth of tumors”.

Reference: patent US20230103554A1, “TNFa SIGNALING [sequence] TUMOR-PROMOTING INFLAMMATION THAT CAN BE TARGETED TO THERAPY” (Baylor College of Medicine, priority 2020, published 2023)
